In one data set the test system is HIV-1 tat protein. It is filed as binding. The settings on record: 32P-labeled RNA transcript, 0 to 600 ng tat. The protocol:
i) Gel retardation assays (FIG. 6) Method RNA transcripts were prepared by transcription with either T3 or T7 RNA polymerases of TAR regions residues +1 to +57, cloned between the HindIII and EcoRI sites of the Bluescribe M13+expression vector (Stratagene). RNA transcripts corresponding to HIV-1 TAR [SEQ ID NO: 1], SSA [SEQ ID NO: 3], SAA and SAS [SEQ ID NO: 5] were synthesized from clones linearized with EcoRI and transcribed with T3 RNA polymerase. RNA transcripts corresponding to the antisense HIV-1 TAR […], AAS , ASS [SEQ ID NO: 4], and ASA (not shown) sequences were prepared from the same plasmids linearized with HindIII and transcribed using T7 RNA polymerase. All other RNA molecules were synthesized using T3 RNA polymerase following EcoRI cleavage of the plasmid vector. The RNA products each carry 13 nucleotides of vector sequence at their 5' end and four nucleotides at their 3' ends. […] Transcription mixtures contained 1 ug linearized plasmid, 40 mM Tris-HCl pH 8.0, 10 mM MgCl 2, 2 mM Spermidine-HCl, 50 mM NaCl, 100 uM each ribonucleotide triphosphate, 40 uCi (alpha-^32 P) UTP (410 Ci/m mol) and 10 units of RNA polymerase in a final volume of 30 ul and were incubated at 37° C. for 30 minutes. After phenol extraction and precipitation from ethanol the RNA was purified from a 9% polyacrylamide denaturing gel. The specific activity of the RNA product was determined and appropriate amounts were used in binding assays. Binding reaction mixtures (1 5ul) contained 1 ng of uniformly labeled RNA probe, 0.5 ug calf thymus DNA, 0.2 ug yeast TRNA, 40 units RNAsin (Promega), 50 mM Tris-HCl and 20 mM KCl and 0 to 600 ng tat protein, prepared from E. coli beta-galactosidase-tat fusion proteins, as described previously (6). After incubation at either 30° C. or 4° C. for 10-20 minutes, the reaction mixtures were applied to a 6% non-denaturing polyacrylamide gel (Acrylamide: Bis, 40:0.5) in 3.3 mM sodium acetate, 6.7 mM Tris (adjusted to pH 7.9 with HCl). The gel buffer was recirculated during electrophoresis at 35 mA for approximately 2 hours at room temperature. Gels were dried and exposed to X-ray film at -80° C. using intensifying screens.

For data set [1], the system named is tat-dependent promoter activity of viral LTR carrying the TAR sequence. Kind of data set: trans-activation CAT assay, test plasmids transfected into HeLa/C63/tat cells. It is filed as cell-based, HeLa/C63/tat (clone 9) cells. The text has this: If tat binding to TAR is necessary for trans-activation, then viral LTRs carrying TAR sequences with low affinities for tat should always have reduced tat-dependent promoter activity in vivo. Site-directed mutagenesis experiments on TAR have shown that trans-activation requires sequences in both the U-rich bulge (10, 11) and the loop sequence (12, 27, 28). These observations have now been extended, using TAR mutations with known affinities for tat in transfection experiments, the results of which are shown in FIG. 8. The experiments used either HeLa cells (FIG. 8a-d) or a constitutive producer of tat, HeLa/C63/tat cells (FIG. 8e-f).
The TAR sequences depicted in FIG. 3 [SEQ ID NO: 1-11] were introduced into a test plasmid, pD5-3-3, which carries a LTR and approximately 300 bases of 5' flanking sequences derived from the infectious proviral clone NL4 (29). The bacterial chloramphenicol acetyltransferase (CAT) gene and SV40 intron and terminator sequence from pSV2-CAT (30) was inserted downstream of TAR by cloning into the HindIII site at +77. Trans-activation was measured either by cotransfection of HeLa cells with the test plasmids and the tat expression plasmid pC63-4-1 (6) (panels a-d in FIG. 10), or by transfection of the test plasmids alone into HeLa/C63/tat (clone 9) cells (panels e-h).
In these experiments, cells were plated at a density of 3×10^5 in a T25 flask and transfected by the calcium phosphate method (31). Transfections in HeLa cells used 8.0 ug of test plasmid, 1.0 to 10 ug of pC63-4-1 plasmid and 10 ug of calf thymus carrier DNA. Transfections of the HeLa/C63/tat (clone 9) cells used 0.5 to 10 ug of test plasmid and 10 ug of calf thymus carrier DNA. The HeLa/C63/tat (clone 9) cells were prepared by infection of HeLa cells with helper-free amphotrophic C63-4-1 MoMuLV-tat virus. Following selection in 2mg/ml G418 individual clones were expanded and the expression of tat protein confirmed by immunoprecipitation with monoclonal antibodies to tat (6). Cell extracts were prepared at 48h post-transfection in 150 ul lysis buffer (0.2% NP40, 20 mM Tris pH 8.0, 4mM MgCl2), heat inactivated at 65° C. for 10 min and stored at -20° C. To ensure that CAT activity was measured in the linear range of the assay (30), at less than 50% conversion of chloramphenicol in its acetylated forms, for each transfection, three different aliquots containing from 5 to 70 ul extract were assayed for CAT activity. Reactions contained extract diluted with lysis buffer to a final volume of 70 ul, 10 ul AcCoA (2.5mg/ml in lysis buffer); 0.5 ul (14C) - chloramphenicol (60 mCi/m mol) and were incubated for 45 min at 37° C. Reaction products were extracted with ethylacetate, separated by thin layer chromatography on silica plates and bands were counted in scintillation fluid to calculate the chloramphenicol conversion efficiency per 10 ul of extract.

Entries after “also recorded” stand apart in the source; their conditions may differ. Where two headings read alike, the source gives them in different places.

On to “ASS: anti-sense lower stem, sense upper stem and loop sequences (GGGUUCCCUAGUUAGACCAGAUUUGAGCCUGGGAGCUCUCUGGCUAACCAGAGAGACCC; chemistry not given here)”, for which the “complex formation with tat in gel retardation assay” value (“complex formation with tat” for short) in the data set on HIV-1 tat protein is listed as “discrete complex formation”. The “CAT expression” value in data set [1] is recorded as “wild-type expression levels”.
The matching figures for “G28 to C28: TAR point mutation expected to disrupt the top of the TAR stem/loop structure (GGGUCUCUCUGGUUAGACCAGAUUUGACCCUGGGAGCUCUCUGGCUAACUAGGGAACCC; chemistry not given here)”: “failed to bind to tat” and “null phenotypes”.
Take “G to U (loop): TAR RNA in which residues 32-34 are changed to uridine (U) (GGGUCUCUCUGGUUAGACCAGAUUUGAGCCUUUUAGCUCUCUGGCUAACUAGGGAACCC; RNA, backbone not given here)”: the “complex formation with tat” value in the data set on HIV-1 tat protein is “discrete complex formation”. Moreover, the “CAT expression” value in data set [1] is reported as “significant CAT activity observed at high plasmid concentrations”.
As for “HIV-1 TAR (UUU): full length HIV-1 TAR RNA of 59 residues prepared by transcription, wild type, UUU bulge (GGGUCUCUCUGGUUAGACCAGAUUUGAGCCUGGGAGCUCUCUGGCUAACUAGGGAACCC; unmodified RNA) [reference compound]”, in the data set on HIV-1 tat protein, the “complex formation with tat” value is on record as “discrete complex formation”.
“SAS: anti-sense upper stem flanked by sense lower stem and loop sequences (GGGUCUCUCUGGUUAGCCAGAGAGCCUGGGAGCUCAAAUCUGGUCUAACUAGGGAACCC; chemistry not given here)”: the “complex formation with tat” value in the data set on HIV-1 tat protein is “No complexes were formed; also recorded: fail to form complexes”. Further, the “CAT expression” value in data set [1] is recorded as “no significant increase over basal levels of CAT expression”.
With “SSA: sense stem, antisense loop sequence (GGGUCUCUCUGGUUAGACCAGAUUUGAGCUCCCAGGCUCUCUGGCUAACUAGGGAACCC; chemistry not given here)”, in the data set on HIV-1 tat protein, the “complex formation with tat” value is on record as “discrete complex formation”. In addition, the “CAT expression” value in data set [1] is “no significant increase over basal levels of CAT expression”.
On to “delta U (bulge): TAR RNA in which residues 23-25 are deleted (GGGUCUCUCUGGUUAGACCAGAGAGCCUGGGAGCUCUCUGGCUAACUAGGGAACCC; RNA, backbone not given here)”, for which the figures for the “complex formation with tat” value in the data set on HIV-1 tat protein (listed as SEQ ID NO: 8) and with HIV-1 tat protein (listed as delta U3 (bulge)) were “abolished tat binding” and “No complexes were formed”, respectively. Further, in data set [1], the “CAT expression” value was “null phenotypes”.

The values are drawn from US5821046A, “RNA oligonucleotides that bind HIV tat protein” (RiboTargets Holdings PLC, priority 1990, dated 1998).
